Experimental data taken from paper PMC7253423, “Quassinoid analogs with enhanced efficacy for treatment of hematologic malignancies target the PI3Kγ isoform” (Communications Biology, 2020).
Several values for one entry are separate records, joined by “and”; a condition that tells them apart may be missing. Identical values can stand only once.

Assays:
[1] = biological target: T1, PIK3CG encoded protein (PI3Kγ) (Homo sapiens, UniProt P48736); experiment: Streptavidin pull-down and mass spectrometry; assay type: binding; conditions: Raji lysates, gene PIK3CG
T1 construct: endogenous in cells; host or cells: Raji cells (lysate)
T1 sequence (P48736 whole entry): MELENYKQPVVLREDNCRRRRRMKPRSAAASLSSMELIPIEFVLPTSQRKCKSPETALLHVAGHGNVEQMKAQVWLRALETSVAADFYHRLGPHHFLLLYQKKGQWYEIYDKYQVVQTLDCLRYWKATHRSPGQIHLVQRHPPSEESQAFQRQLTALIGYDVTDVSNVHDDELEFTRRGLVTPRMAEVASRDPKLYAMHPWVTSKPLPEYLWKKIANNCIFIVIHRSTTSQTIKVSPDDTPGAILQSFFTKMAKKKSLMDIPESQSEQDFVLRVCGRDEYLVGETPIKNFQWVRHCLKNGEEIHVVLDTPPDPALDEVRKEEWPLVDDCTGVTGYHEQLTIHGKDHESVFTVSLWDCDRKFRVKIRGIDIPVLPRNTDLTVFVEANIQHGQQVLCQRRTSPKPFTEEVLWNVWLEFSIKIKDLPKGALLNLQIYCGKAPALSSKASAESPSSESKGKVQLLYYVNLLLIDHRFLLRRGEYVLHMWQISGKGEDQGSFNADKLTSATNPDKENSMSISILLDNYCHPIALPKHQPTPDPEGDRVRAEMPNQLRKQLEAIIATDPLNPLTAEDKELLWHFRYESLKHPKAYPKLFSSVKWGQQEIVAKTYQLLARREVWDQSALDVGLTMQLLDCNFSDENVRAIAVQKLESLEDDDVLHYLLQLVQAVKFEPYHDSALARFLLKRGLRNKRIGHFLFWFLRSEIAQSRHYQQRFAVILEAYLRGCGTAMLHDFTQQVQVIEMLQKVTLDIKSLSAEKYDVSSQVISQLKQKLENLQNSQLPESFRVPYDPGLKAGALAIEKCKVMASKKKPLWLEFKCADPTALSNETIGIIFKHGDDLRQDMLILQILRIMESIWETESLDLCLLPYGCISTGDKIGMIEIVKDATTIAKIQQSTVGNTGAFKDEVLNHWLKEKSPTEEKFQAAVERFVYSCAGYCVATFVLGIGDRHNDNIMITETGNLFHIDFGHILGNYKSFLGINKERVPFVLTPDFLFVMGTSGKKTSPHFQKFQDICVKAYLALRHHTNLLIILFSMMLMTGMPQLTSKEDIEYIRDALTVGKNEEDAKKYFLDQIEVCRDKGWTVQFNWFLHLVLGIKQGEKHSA
Protocol: (§1) Two hundred million Raji cells were harvested and lysed with RIPA buffer [1% Nonidet P-40 (NP-40), 10 mM Tris (pH8.0), 2 mM EDTA, 150 mM NaCl, supplemented with protease inhibitors (1 mM phenylmethylsulphonyl fluoride (PMSF), 1 μg/ml each Aprotinin, Pepstatin, and Leupeptin)]. Twenty milligram lysates were combined with magnetic Streptavidin beads as well as biotin-conjugated compounds 51046, 51048, or 51052, respectively. The complexes were incubated overnight with rotation at 4 °C. The immunoprecipitated samples were washed with RIPA three times and resolved on an SDS-PAGE gel.
(§2) The following Mass Spectrometry proteomics resources and services are provided by the Quantitative Proteomics Resource Core at School of Medicine at the University of Pennsylvania. Briefly, the peptides were extracted from the gel band and analyzed with an Orbitrap Fusion (Thermo Fisher Scientific, San Jose, CA, USA) attached to an EasyLC 1000 system (Thermo Fisher Scientific, San Jose, CA, USA) at 400 nL/min. The raw MS data were processed using MaxQuant (Version 1.5.3.30)[61], and searched with the UniProt human database. Then the target-decoy approach was used to filter the search results, in which the false discovery rate was less than 1% at the peptide and protein level.

[2] = biological target: T2, TP73 encoded protein (P73) (Homo sapiens, UniProt O15350); experiment: Streptavidin pull-down and mass spectrometry; assay type: binding; conditions: Raji lysates, gene TP73
T2 construct: endogenous in cells; host or cells: Raji cells (lysate)
T2 sequence (O15350 whole entry): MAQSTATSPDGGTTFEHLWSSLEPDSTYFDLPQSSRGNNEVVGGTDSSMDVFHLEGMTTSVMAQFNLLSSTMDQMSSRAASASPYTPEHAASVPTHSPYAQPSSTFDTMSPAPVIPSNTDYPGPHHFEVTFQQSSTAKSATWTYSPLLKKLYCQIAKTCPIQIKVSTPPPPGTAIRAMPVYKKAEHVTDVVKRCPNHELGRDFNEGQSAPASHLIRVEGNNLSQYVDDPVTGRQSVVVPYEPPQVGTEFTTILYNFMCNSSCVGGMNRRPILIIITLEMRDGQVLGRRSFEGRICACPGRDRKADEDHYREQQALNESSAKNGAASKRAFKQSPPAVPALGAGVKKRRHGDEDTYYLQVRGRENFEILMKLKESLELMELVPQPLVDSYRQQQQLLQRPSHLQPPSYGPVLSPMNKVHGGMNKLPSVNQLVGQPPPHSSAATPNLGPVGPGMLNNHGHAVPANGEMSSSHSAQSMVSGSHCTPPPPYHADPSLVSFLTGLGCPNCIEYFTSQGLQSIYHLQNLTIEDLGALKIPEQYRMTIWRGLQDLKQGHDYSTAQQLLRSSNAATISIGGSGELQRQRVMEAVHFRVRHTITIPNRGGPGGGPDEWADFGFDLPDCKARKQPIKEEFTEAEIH
Protocol: as §1, §2

[3] = biological target: T3, GST-tagged PI3Kγ protein (Homo sapiens, UniProt P48736); experiment: In vitro pull-down assay with purified protein; assay type: binding; conditions: 0, 300 μM, or 500 μM compound, Dynabeads M-280 Streptavidin
T3 construct: made in house; host or cells: E. coli BL21 (DE3)
T3 sequence (P48736 whole entry): as the sequence (P48736 whole entry) above
From the text: PIK3CG cDNA (Plasmid #20574) was purchased from Addgene and cloned into a pGEX-6P-1 vector (GE Healthcare, Madison, WI, USA) with SalI and NotI (NEB, USA). This GST-tagged PIK3CG plasmid was transformed into E. coli BL21 (DE3)-competent cells (Life Technologies, Carlsbad, CA, USA) for in vitro expression according to Molecular Cloning (Third Edition).
(§3) Thirty microgram of purified GST-tagged proteins were pre-cleared with Dynabeads M-280 Streptavidin (Invitrogen, Carlsbad, CA, USA). […] The complexes were harvested and washed with PBS. The collected beads were mixed with SDS loading buffer for further analysis.

[4] = biological target: T4, JUP encoded protein (junction plakoglobin) (Homo sapiens, UniProt P14923); experiment: Streptavidin pull-down and mass spectrometry; assay type: binding; conditions: Raji lysates, gene JUP
T4 construct: endogenous in cells; host or cells: Raji cells (lysate)
T4 sequence (P14923 whole entry): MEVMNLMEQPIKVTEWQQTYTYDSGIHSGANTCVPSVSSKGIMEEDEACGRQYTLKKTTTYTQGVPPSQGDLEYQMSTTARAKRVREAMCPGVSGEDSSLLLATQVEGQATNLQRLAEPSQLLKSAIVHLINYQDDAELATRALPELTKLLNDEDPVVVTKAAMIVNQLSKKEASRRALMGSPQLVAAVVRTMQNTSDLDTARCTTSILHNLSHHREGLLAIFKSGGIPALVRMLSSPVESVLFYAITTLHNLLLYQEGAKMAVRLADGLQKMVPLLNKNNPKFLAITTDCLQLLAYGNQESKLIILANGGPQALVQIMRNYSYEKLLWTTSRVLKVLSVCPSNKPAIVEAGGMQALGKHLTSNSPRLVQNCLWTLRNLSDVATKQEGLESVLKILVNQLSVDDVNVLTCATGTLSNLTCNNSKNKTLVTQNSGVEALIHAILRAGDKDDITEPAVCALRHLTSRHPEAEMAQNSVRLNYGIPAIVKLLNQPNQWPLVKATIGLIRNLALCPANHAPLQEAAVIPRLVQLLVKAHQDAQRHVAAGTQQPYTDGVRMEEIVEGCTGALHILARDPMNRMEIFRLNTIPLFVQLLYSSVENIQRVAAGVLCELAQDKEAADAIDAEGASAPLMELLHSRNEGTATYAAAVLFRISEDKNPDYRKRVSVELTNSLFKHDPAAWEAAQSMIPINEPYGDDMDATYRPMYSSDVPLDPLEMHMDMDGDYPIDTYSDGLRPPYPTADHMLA
Protocol: as §1, §2

[5] = biological target: T5, PIK3C2B encoded protein (PI3KC2β) (Homo sapiens, UniProt O00750); experiment: Streptavidin pull-down and mass spectrometry; assay type: binding; conditions: Raji lysates, gene PIK3C2B
T5 construct: endogenous in cells; host or cells: Raji cells (lysate)
T5 sequence (O00750 whole entry): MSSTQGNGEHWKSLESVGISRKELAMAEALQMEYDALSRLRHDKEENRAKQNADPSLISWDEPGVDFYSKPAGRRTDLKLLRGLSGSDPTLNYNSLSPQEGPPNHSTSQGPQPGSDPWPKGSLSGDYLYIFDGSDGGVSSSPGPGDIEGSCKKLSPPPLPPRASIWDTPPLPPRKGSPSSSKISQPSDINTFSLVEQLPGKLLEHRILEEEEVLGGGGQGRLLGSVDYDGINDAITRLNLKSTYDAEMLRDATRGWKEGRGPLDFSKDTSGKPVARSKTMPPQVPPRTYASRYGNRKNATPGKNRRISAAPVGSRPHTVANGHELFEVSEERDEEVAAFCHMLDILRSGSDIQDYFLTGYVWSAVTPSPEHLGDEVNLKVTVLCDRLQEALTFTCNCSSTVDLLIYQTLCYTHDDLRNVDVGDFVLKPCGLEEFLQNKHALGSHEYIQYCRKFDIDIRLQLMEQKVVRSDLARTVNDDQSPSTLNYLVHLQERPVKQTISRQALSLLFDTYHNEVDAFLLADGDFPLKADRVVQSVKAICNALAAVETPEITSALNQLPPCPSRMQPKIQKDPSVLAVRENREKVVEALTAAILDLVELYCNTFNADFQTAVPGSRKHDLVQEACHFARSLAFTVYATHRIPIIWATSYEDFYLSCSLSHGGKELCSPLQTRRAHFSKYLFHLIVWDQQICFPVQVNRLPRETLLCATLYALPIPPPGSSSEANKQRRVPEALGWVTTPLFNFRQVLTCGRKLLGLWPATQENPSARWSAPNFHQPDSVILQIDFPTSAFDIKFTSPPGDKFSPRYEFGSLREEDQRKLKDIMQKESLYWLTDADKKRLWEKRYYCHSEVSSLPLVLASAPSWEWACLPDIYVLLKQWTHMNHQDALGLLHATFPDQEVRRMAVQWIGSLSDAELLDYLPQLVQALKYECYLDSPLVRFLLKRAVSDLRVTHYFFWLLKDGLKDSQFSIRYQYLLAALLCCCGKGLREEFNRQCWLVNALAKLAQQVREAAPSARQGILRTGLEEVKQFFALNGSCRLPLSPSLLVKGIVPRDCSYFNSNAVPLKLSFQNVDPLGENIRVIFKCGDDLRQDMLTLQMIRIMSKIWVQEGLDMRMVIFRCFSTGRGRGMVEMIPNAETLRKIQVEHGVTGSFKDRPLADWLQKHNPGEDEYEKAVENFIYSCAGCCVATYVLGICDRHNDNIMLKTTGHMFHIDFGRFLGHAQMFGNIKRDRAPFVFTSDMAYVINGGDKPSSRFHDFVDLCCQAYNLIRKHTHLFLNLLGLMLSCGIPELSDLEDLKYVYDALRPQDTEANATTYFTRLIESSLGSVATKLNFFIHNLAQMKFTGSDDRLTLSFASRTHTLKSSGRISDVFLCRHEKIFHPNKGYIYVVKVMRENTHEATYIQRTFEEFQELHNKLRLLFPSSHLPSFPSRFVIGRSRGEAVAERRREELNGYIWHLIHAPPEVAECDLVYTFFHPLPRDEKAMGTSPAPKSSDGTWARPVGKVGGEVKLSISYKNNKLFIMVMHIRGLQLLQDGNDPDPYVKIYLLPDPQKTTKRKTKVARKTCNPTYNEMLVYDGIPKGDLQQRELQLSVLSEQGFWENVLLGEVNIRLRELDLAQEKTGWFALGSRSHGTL
Protocol: as §1, §2

[6] = biological target: T6, AKT1 (Homo sapiens, UniProt P31749); experiment: Competitive binding pull-down assay in SU-DHL-4 cell lysates, western blot; conditions: SU-DHL-4 lysates
T6 construct: endogenous in cells; host or cells: SU-DHL-4 cells (lysate)
T6 sequence (P31749 whole entry): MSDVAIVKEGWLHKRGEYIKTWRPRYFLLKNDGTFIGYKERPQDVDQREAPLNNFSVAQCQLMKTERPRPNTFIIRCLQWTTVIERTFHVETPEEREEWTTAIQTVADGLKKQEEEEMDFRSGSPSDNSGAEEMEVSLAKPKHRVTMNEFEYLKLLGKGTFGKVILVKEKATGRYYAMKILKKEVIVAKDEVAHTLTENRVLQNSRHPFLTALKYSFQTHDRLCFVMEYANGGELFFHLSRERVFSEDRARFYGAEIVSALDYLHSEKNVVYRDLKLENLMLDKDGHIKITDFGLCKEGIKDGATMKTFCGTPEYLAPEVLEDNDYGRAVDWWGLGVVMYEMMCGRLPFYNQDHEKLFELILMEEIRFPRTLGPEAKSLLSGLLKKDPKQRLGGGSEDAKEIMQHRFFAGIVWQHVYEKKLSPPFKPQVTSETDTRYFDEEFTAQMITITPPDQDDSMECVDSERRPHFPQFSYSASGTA
Protocol: as §3
(§4) Western blot analyses were performed as previously described. Briefly, total cell lysates were separated by SDS-PAGE gel and transferred to nitrocellulose membrane. The membranes were blocked with 5% non-fat milk, probed with specific antibodies, and visualized using the Odyssey scanner (LiCor Inc., Lincoln, NE).

[7] = biological target: T7, GAPDH (Homo sapiens, UniProt P04406); experiment: as above; conditions: SU-DHL-4 lysates
T7 construct: endogenous in cells; host or cells: SU-DHL-4 cells (lysate)
T7 sequence (P04406 whole entry): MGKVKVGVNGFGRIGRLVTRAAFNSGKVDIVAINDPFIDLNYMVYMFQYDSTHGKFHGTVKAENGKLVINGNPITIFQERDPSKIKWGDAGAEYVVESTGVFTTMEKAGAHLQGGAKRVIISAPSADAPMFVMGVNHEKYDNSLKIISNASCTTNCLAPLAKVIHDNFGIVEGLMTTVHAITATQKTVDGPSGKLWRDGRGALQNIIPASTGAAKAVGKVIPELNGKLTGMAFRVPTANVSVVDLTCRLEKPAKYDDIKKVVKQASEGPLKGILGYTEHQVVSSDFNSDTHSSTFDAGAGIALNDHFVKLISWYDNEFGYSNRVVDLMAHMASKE
Protocol: as §3, §4

[8] = biological target: T8, PI3Kγ (Homo sapiens, UniProt P48736); experiment: as above; conditions: SU-DHL-4 lysates, biotin derivative alone
T8 construct: endogenous in cells; host or cells: SU-DHL-4 cells (lysate)
T8 sequence (P48736 whole entry): as the sequence (P48736 whole entry) above
Protocol: as §3, §4

[9] = tested on: Raji cells; experiment: Cell viability assay (CellTiter-Glo luminescence); assay type: cell-based, human; conditions: Homo sapiens
Protocol: (§5) 5000 cells as indicated were cultured in 96-well plate with 100 μl of media. […] After treatment, the cells were incubated with 100 μl buffer for 10 min at room temperature following the instructions of CellTiter-Glo kit (Promega, Madison, WI). Luminescence was detected using a multi-mode reader Cytation 5 (BioTek, Winooski, VT). […] Two independent experiments done in duplicates were performed.

[10] = tested on: SU-DHL-4 cells; experiment: Cell viability assay (CellTiter-Glo luminescence); assay type: cell-based, human; conditions: Homo sapiens, SU-DHL-4, 144 h
Protocol: as §5

[11] = tested on: MOLM14 cells; experiment: Cell viability assay (CellTiter-Glo luminescence); assay type: cell-based; conditions: Homo sapiens
Protocol: as §5

[12] = Cytotoxicity, cell viability assay in normal cells; assay type: cell-based, human; conditions: human, relative cell viability (Fig 6a), replicates
From the text: (§6) Human peripheral blood mononuclear cells (PBMCs), normal T-cells and B-cells were provided by the University of Pennsylvania Human Immunology Core (HIC), and Patient-derived xenografts (PDXs) were obtained from Fox Chase Cancer Center (FCCC). These samples were from different unidentified and healthy donors with written, informed consent. All the procedures were approved by the Institutional Review Board (IRB) and conducted according to the declarations of Helsinki protocols.
as §5

[13] = Cytotoxicity, cell viability assay in normal cells; assay type: cell-based; conditions: human, replicates
From the text: as §6, §5

[14] = tested on: hematologic malignancies derived cell lines; experiment: Cell viability assay, panel of hematologic malignancy derived cell lines; assay type: cell-based, human; conditions: 100 nM, 72 h, lymphoma, leukemia and multiple myeloma cell lines (13 cell lines for analogs)
Protocol: 5000 cells as indicated were cultured in 96-well plate with 100 μl of media. On the next day, Brusatol or associated analogs were added once to the cells without media change. After treatment, the cells were incubated with 100 μl buffer for 10 min at room temperature following the instructions of CellTiter-Glo kit (Promega, Madison, WI). Luminescence was detected using a multi-mode reader Cytation 5 (BioTek, Winooski, VT). […] Two independent experiments done in duplicates were performed.

[15] = tested on: Raji cells; experiment: Western blot of PI3K/AKT signaling proteins; assay type: cell-based, human; conditions: Raji, 0, 50 nM, 100 nM; 0, 12 h, 24 h
Protocol: as §4

[16] = tested on: MOLM14 xenografts; experiment: In vivo tumorigenic assay using xenografts, tumor size; design: species or system NOD/SCID mice; key to tumor size (Fig 5d&5e), individual mice: tumor volume in mm^3, calculated as (a × b × b)/2; conditions: for tumor size (Fig 5d&5e), individual mice: MOLM14 xenograft
Protocol: (§7) Six-week-old male NOD.CB17-Prkdc^scid/J (NOD/SCID) mice (Jackson Labs, Bar Harbor, ME, USA) were used as the human-in-mouse xeno-transplantation model. MOLM14 cells (1 × 10^7 cells) were injected into the subcutaneous space on the left flank of the mice. […] Body weight and tumor size were monitored before every injection. After treatment for 2 weeks, the mice were euthanized by CO2 inhalation and the tumors were carefully excised. The tumor volume (mm^3) was measured and calculated using the formula (a × b × b)/2 (a, the largest diameter of two measurements; b, the smallest diameter of two measurements).

[17] = In vivo toxicity test, survival rate; design: species or system NOD/SCID mice
Protocol: The survival rate was recorded to monitor the tolerance of the compounds in these mice.

[18] = tested on: MOLM14 xenografts; experiment: mRNA expression in xenograft tumors in vivo; design: species or system NOD/SCID mice; conditions: xenograft tumors of treated mice
Protocol: Real-time PCR experiments were performed as previously described. The experiments were performed in triplicate.
as §7

[19] = relative cell viability (Fig 6b)
[20] = relative cell viability (Fig 6c)

COC(=O)C12OCC34C(CC5C(C)=C(OC(=O)CCCCCNC(=O)CCCCC6SCC7NC(=O)NC76)C(=O)CC5(C)C3C(O)C1O)OC(=O)C(OC(=O)C=C(C)C)C24 (centres unmarked) [compound 51052]
Score (sum of the ion scores of all peptides identified) [1]: 6.132 | Score (sum of the ion scores of all peptides identified) [2]: 6.0132 | association with GST-tagged PI3Kγ [3]: formed a complex

COC(=O)C12OCC34C(CC5C(C)=C(OC(=O)CCCCC6SCC7NC(=O)NC76)C(=O)CC5(C)C3C(O)C1O)OC(=O)C(OC(=O)C=C(C)C)C24 (centres unmarked) [compound 51048]
Score (sum of the ion scores of all peptides identified) [4]: 11.324 | Score (sum of the ion scores of all peptides identified) [5]: 5.9631 | AKT1 pulled down [6]: little or no detectable levels | GAPDH pulled down [7]: little or no detectable levels | binding activity with PI3Kγ [8]: relatively strong

COC(=O)C12OCC34C(CC5C(C)=C(OC(=O)CC(C)N)C(=O)CC5(C)C3C(O)C1O)OC(=O)C(OC(=O)C=C(C)C)C24 (centres unmarked) [#26]
IC50 ([9]; analogs, 72 h, Fig. 5c, read-out: IC50): 37.6 nM | viability at 0.00244141 µM ([9]; read-out: relative cell viability (Fig 6f), replicates, Raji, Con. 0.00244141 μM, fraction of 0 μM control): 105% | viability at 0.0390625 µM ([9]; read-out: relative cell viability (Fig 6f), replicates, Raji, Con. 0.0390625 μM, fraction of 0 μM control): 35% | viability at 0.15625 µM ([9]; read-out: relative cell viability (Fig 6f), replicates, Raji, Con. 0.15625 μM, fraction of 0 μM control): 16.4% | viability at 0.625 µM ([9]; read-out: relative cell viability (Fig 6f), replicates, Raji, Con. 0.625 μM, fraction of 0 μM control): 7.06% | viability at 10 µM ([9]; read-out: relative cell viability (Fig 6f), replicates, Raji, Con. 10 μM, fraction of 0 μM control): 4.98% | viability at 0.00244141 µM ([10]; read-out: relative cell viability (Fig 6d), replicates, SU-DHL-4, Con. 0.00244141 μM, fraction of 0 μM control): 125% | viability at 0.0390625 µM ([10]; read-out: relative cell viability (Fig 6d), replicates, SU-DHL-4, Con. 0.0390625 μM, fraction of 0 μM control): 36.6% | viability at 0.15625 µM ([10]; read-out: relative cell viability (Fig 6d), replicates, SU-DHL-4, Con. 0.15625 μM, fraction of 0 μM control): 18.6% | viability at 0.625 µM ([10]; read-out: relative cell viability (Fig 6d), replicates, SU-DHL-4, Con. 0.625 μM, fraction of 0 μM control): 9.14% | viability at 10 µM ([10]; read-out: relative cell viability (Fig 6d), replicates, SU-DHL-4, Con. 10 μM, fraction of 0 μM control): 6.62% | viability at 0.0390625 µM ([11]; MOLM-14, read-out: relative cell viability (Fig 6e), replicates, MOLM14, Con. 0.0390625 μM, fraction of 0 μM control): 12.5% | viability at 0.15625 µM ([11]; MOLM-14, read-out: relative cell viability (Fig 6e), replicates, MOLM14, Con. 0.15625 μM, fraction of 0 μM control): 7.37% | viability at 0.625 µM ([11]; MOLM-14, read-out: relative cell viability (Fig 6e), replicates, MOLM14, Con. 0.625 μM, fraction of 0 μM control): 5.55% | viability at 10 µM ([11]; MOLM-14, read-out: relative cell viability (Fig 6e), replicates, MOLM14, Con. 10 μM, fraction of 0 μM control): 4.05% | viability at 0.000244141 μM [12]: 103% | viability at 0.00390625 μM [12]: 85% | viability at 0.015625 μM [12]: 83.1% | viability at 0.0625 μM [12]: 80.7% | viability at 1 μM [12]: 61.8% | viability at 0.000244141 μM [13, 19]: 96.2% | viability at 0.00390625 μM [13, 19]: 86% | viability at 0.015625 μM [13, 19]: 81.6% | viability at 0.0625 μM [13, 19]: 74.5% | viability at 1 μM [13, 19]: 82.6% | viability at 0.000244141 μM [13, 20]: 111% | viability at 0.00390625 μM [13, 20]: 112% | viability at 0.015625 μM [13, 20]: 115% | viability at 1 μM [13, 20]: 93.8% | inhibition of cell viability in panel of cell lines [14]: significantly inhibit | suppression of AKT1, GSK3, and mTOR levels [15]: largely similar to Brusatol | tumor size, inhibitory response ([16]; 2 mg/kg intraperitoneally three times per week, 2 weeks, vs PBS control): strong and rapid inhibitory response | tumor size (Fig 5d&5e), individual mice ([16]; 0d): 50.8503 and 81.4689 and 79.571 and 83.4481 and 51.3256 and 101.436 | tumor size (Fig 5d&5e), individual mice ([16]; 2d): 106.443 and 103.871 and 87.5139 and 68.1449 and 136.175 and 126.294 | tumor size (Fig 5d&5e), individual mice ([16]; 4d): 67.7106 and 172.977 and 64.3385 and 73.9417 and 166.255 and 100.157 | tumor size (Fig 5d&5e), individual mice ([16]; 6d): 174.013 and 301.003 and 181.944 and 99.2269 and 96.1716 and 48.5716 | tumor size (Fig 5d&5e), individual mice ([16]; 8d): 185.825 and 124.577 and 101.125 and 181.307 and 468.229 and 312.088 | tumor size (Fig 5d&5e), individual mice ([16]; 10d): 259.199 and 230.595 and 161.819 and 478.339 and 646.864 and 395.944 | tumor size (Fig 5d&5e), individual mice ([16]; 12d): 359.944 and 415.708 and 136.428 and 853.399 and 887.802 and 629.337 | toxicity in vivo (survival) ([17]; 10 mg/kg intraperitoneally every other day, monitored 24 days, 4 mice per group): did not show any obvious signs of toxicity | survival event status per mouse (Fig 6i; 1 = event/death, 0 = censored) ([17]; 10mg/kg, Days Post-treatment 24): 0 | PIK3CG and GSK3B mRNA expression in vivo [18]: inhibited
